Measurements: US20120296067A1, “COMPOUND CAPABLE OF BINDING TO NATURALLY OCCURRING DENATURED PROTEIN, AND METHOD FOR SCREENING FOR THE COMPOUND” (Prism BioLab Co., Ltd., priority 2010, published 2012)
Entries after “also recorded” stand apart in the source; their conditions may differ.

Tests used:
[1] = molecular target: T1, CBP (Homo sapiens, UniProt Q92793); conditions: SW480 nuclear extract; FIG. 1; cited from earlier work
T1 construct: endogenous in cells; host or cells: SW480 nuclear extract
T1 sequence (Q92793 whole entry): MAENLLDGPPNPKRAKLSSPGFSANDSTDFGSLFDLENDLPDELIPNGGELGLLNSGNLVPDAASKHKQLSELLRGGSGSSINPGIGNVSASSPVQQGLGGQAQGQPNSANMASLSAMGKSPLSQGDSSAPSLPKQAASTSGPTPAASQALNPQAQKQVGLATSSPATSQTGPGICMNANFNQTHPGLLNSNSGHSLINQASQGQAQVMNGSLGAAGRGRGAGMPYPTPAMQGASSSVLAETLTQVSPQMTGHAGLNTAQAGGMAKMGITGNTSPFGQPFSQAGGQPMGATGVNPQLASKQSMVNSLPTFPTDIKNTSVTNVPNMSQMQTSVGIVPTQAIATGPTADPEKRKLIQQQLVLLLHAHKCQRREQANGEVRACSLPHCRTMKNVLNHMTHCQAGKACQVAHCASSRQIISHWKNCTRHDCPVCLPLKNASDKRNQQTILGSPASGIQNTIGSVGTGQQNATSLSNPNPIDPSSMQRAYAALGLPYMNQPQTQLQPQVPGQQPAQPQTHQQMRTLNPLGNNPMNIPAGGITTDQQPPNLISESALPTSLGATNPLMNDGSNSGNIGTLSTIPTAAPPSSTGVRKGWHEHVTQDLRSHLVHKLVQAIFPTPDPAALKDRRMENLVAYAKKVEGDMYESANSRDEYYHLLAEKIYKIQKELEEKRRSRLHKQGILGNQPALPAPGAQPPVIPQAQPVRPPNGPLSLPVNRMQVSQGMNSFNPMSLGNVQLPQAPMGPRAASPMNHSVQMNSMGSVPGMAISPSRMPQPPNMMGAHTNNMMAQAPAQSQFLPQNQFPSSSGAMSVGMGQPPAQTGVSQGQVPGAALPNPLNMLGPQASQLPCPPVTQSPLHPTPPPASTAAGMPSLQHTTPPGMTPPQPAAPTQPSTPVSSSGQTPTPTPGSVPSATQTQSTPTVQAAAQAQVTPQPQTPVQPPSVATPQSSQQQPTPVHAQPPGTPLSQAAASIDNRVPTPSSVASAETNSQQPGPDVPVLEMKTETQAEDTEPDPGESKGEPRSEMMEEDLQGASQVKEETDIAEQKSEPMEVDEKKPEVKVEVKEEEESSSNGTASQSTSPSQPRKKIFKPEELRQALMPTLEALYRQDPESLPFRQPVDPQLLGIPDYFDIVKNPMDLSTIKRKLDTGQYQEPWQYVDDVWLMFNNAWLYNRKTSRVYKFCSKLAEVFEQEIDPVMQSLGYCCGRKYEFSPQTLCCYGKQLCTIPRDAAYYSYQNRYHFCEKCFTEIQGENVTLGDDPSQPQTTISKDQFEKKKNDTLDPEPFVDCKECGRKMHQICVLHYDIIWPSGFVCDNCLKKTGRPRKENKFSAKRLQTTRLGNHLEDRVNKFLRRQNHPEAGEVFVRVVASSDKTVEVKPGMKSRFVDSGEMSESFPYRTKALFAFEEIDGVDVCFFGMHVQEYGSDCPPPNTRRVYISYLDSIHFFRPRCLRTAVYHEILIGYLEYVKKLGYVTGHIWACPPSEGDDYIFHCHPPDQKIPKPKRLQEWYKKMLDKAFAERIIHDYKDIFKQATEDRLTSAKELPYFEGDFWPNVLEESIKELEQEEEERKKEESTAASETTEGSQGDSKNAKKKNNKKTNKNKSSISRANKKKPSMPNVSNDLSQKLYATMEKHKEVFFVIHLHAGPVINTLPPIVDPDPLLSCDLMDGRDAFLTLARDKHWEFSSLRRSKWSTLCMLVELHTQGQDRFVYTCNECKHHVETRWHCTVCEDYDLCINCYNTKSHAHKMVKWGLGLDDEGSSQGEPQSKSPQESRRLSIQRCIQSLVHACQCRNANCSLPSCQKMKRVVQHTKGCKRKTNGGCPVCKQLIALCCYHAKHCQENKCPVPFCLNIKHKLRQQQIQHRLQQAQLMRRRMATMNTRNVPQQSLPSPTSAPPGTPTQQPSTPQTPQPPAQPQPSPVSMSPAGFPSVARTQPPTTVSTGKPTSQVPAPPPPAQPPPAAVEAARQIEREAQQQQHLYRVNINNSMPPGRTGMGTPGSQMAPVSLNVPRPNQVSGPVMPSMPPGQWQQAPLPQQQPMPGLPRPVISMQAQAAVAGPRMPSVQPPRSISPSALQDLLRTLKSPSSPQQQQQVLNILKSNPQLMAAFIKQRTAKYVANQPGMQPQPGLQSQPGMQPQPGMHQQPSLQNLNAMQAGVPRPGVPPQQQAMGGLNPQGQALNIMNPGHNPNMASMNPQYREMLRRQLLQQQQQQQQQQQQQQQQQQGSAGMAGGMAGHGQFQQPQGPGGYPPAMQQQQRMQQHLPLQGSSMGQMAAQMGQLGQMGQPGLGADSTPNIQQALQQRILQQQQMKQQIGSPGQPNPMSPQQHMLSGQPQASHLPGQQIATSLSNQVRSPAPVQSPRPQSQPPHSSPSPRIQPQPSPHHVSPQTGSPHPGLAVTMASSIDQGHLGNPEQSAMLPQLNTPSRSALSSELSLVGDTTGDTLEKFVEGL

[2] = molecular target: T2, p300 (1-111) (disordered sequence region) (Homo sapiens, UniProt Q09472); conditions: p300 (1-111) expressed in E. coli; cited from earlier work
T2 construct: made in house; host or cells: E. coli
T2 sequence (Q09472 1-111): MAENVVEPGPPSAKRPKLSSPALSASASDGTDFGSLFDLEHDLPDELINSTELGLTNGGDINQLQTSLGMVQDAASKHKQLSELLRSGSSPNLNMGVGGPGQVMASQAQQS

[3] = molecular target: T3, CBP (1-111) (disordered sequence region) and β-catenin (Homo sapiens, UniProt Q92793); conditions: cited from earlier work
T3 construct: made in house; host or cells: E. coli
T3 sequence (Q92793 1-111): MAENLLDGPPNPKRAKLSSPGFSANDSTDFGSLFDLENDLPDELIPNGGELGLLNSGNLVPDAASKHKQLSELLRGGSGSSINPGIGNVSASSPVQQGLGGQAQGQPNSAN

[4] = molecular target: T4, CBP (1-111) (disordered sequence region) (Homo sapiens, UniProt Q92793); experiment: 2D NMR analysis of 15N-labeled CBP (1-111) with ICG-001; assay type: binding; conditions: 5 μM or 15 μM ICG-001
T4 construct: NMR analysis using CBP (1-111) expressed in E. coli as a sample; made in house; host or cells: E. coli
T4 sequence (Q92793 1-111): as above
Procedure: ^15N-labeled CBP (1^-111) (disordered sequence region) was expressed E. coli and dissolved in a buffer (NaP 25 mM·pH 6.8, NaCl 50 mM, 0.02% NaN3), and 300 μl thereof was introduced into an NMR sample tube. Moreover, a D2O solution of ICG-001 was added so as to attain an ICG^-001 concentration of 5 μM or 15 μM. Solutions prepared in this manner as NMR samples were subjected to an NMR analysis. In the NMR analysis, the measurement and analysis was carried out to give a 2D spectrum, with the X axis indicating […] data and the Y axis indicating N-15 data.

What does the source list for `O=C1[C@H](Cc2ccc(O)cc2)N2C(=O)CCN(C(=O)NCc3ccccc3)[C@H]2CN1Cc1cccc2ccccc12` [ICG-001]?
binding to CBP (pull-down) [1]: binds to CBP; also recorded: bound to CBR; binding to p300 [2]: does not binds to p300; also recorded: did not bind; also recorded: does not occur; separation of CBP (1-111) from β-catenin on addition of compound ([3]; CBP (1-111) and β-catenin expressed in E. coli, pulled down by immunoprecipitation): CBP (1-111) became separated; binding to the N-terminus of CBP ([3]; CBP (1-111), FIG. 2): binds to the N-terminus sequence of CBP; also recorded: bound to the N-terminus of CBP; interaction between CBP1-111 and compound (NMR) [4]: clear interaction; change of NMR peak of CBP1-111 on addition of compound ([4]; buffer pH 6.8, FIGS. 5 and 6): change of a peak
